Results on one compound are retold here after US20150224164A1, “TREATMENT OF AUTISM SPECTRUM DISORDERS USING GLYCYL-L-2-METHYLPROLYL-L-GLUMATIC ACID” (Neuren Pharmaceuticals Limited, priority 2013, published 2015).

Structures are written as SMILES. Where a SMILES comes first, the peptide text is derived from it.

For assay [1], the system named is layer 5 pyramidal neurons of motor cortex, MeCP2 knockout. The assay is described as follows: Golgi staining, cortical spine density (Example 10). It counts as in vivo, mouse. The following applies: P28 mice; knockout with treatment. As to the method: Samples (<1 cm) from P28 mice are fixed in 10% formalin and 3% potassium bichromate for 24 hours. Tissue is then transferred into 2% silver nitrate for 2 days in the dark at room temperature. Sections from these samples are then cut at 50 μm thickness into distilled water. Sections corresponding to motor cortex are mounted onto slides, air dried for 10 minutes, and then dehydrated through sequential rinses of 95% alcohol, 100% alcohol, and xylene, and then sealed with a coverslip. Images re acquired at 10× (whole cell) and 100× (spine imaging) using a Zeiss Pascal 5 Exciter confocal microscope. We use Golgi staining to label neurons sparsely and distinctly, and applied high-resolution confocal imaging to measure dendritic spine density and morphology in the labelled cells, restricting analysis to layer 5 pyramidal neurons in sections of motor cortex from critical period mice (P28). While low-magnification imaging clearly delineates the extent of the dendrites of the pyramidal cells we use higher magnifications to count synaptic contacts and determine the morphological class of each spine. We classify spines as either large and bulbous (“mushroom”, M), short and stubby (“stubby”, S), short and thin (“thin”, T) or filopodia (F).

The next assay deals with MeCP2 knockout mice. Kind of assay: Nocturnal locomotor activity (Example 10). It counts as in vivo, mouse. The following applies: after 6 weeks; 20 mg/kg i.p. daily. As for the experimental part:
Spontaneous motor activity is measured by using an infrared beam-activated movement-monitoring chamber (Opto-Varimax-MiniA; Columbus Instruments, Columbus, Ohio). For each experiment, a mouse is placed in the chamber at least 3 h before recordings started. Movement is monitored during the normal 12-h dark cycle (7 p.m. to 7 a.m.). One dark cycle per animal per time point is collected.

In assay [2] the test system is heterozygous Shank3-deficient mice. Kind of assay: Social interaction and ultrasonic vocalization, Shank3-deficient mice (Example 13). It counts as in vivo, mouse. The following applies: 15 or 60 mg/kg oral b.i.d. 14 days; vs placebo. As to the method: 1 to 3 month old wild type and heterozygous Shank3-deficient mice are divided into 4 treatment groups: placebo treated wild-type, placebo treated Shank3-deficient group and two Shank3-deficient G-2-MePE treated groups. The animals are given placebo (water) or G-2-MePE formulated in water administered orally, b.i.d for 14 days. G-2-MePE is administered at two doses: 15 or 60 mg/kg.
Behavioral assessments are made at several time points, and include analysis of social interactions and ultrasonic social communication, in line with the methodology described by Bozdagi et al. Briefly, male-female social interactions in each treatment group are evaluated. The subject males are group-housed and individually tested in clean cages with clean litter. Each testing session lasts 5 min. […] Videos from the male subjects are subsequently scored by an investigator uninformed of the subject's genotype and treatment group on measures of nose-to-nose sniffing, nose-to-anogenital sniffing and sniffing of other body regions, using Noldus Observer software (Noldus Information Technology, Leesburg, Va., USA). Ultrasonic vocalizations are identified manually by two highly trained investigators blinded to genotype/treatment group information, and summary statistics are calculated using the Avisoft package. […] Data are analysed using an unpaired Student's t-test.

The subject of assay [3] is fmr1 KO hippocampal neurons. Kind of assay: Dendritic spine density in hippocampal primary cell cultures (microfluidic chamber, GFP). The class given is cell-based, mouse. The following applies: 0.5 nM, n=3 independent experiments. As to the method: Hippocampal cell cultures were prepared from wild-type and fmr1 KO foetal mice (14-16 d of gestation). After 3d in vitro, green fluorescent protein (GFP) was used to monitor dendritic spine density during time-course of culture (Ethell and Yamaguchi, 1999; Ethell et al., 2001, Henkemeyer et al., 2003). Dendritic spines are usually formed between 7 and 14 days in vitro (DIV). By 14 DIV most dendritic protrusions are spines. We evaluated the effect of G-2-MePE, a positive control (the mGluR5 antagonist 2-methyl-6-(phenylethynyl)-pyridine or MPEP) and vehicle controls on dendritic spine density in fmr1 KO and WT hippocampal primary cell cultures. Fmr1 KO and wild-type cultures were treated at 17 DIV.
We used the compartmentalized culture system, a microfluidic chamber (see FIG. 31A) which opens the possibility for fast drug testing with the capacity to detect in vitro drug effects such as spine morphology, neurite outgrowth and synapse formation. The treated and untreated neurons in the compartmentalized chambers can be also being use for western blot analysis. The compartmentalised culture is a new approach to evaluate the effect of drugs on anterograde and retrograde transport of messengers and proteins relevant to FXS. Other new possibility that offers this approach its access into exclusive axon compartment, in this area immunodetection and treatments are also possible. […]

`C[C@@]1(C(=O)N[C@@H](CCC(=O)O)C(=O)O)CCCN1C(=O)CN` [Example G-2-MePE, Glycyl-L-2-methylprolyl-L-glutamic acid] (HELM PEPTIDE1{G.[C[C@@]1(C(=O)[*:2])CCCN1[*:1]].E}$$$$V2.0): the “density of spines per unit branch” value in assay [1] is listed as “largely ameliorated”. The “nocturnal locomotor activity levels” value in the assay on MeCP2 knockout mice is “elevates these levels”. In assay [2], the “cumulative duration of total social sniffing” value was “significant increase” and the “number of ultrasonic vocalizations” value was “increased number of ultrasonic vocalizations”. Moreover, the “dendritic spine density (mean±SD)” value in assay [3] was 0.33±0.07 spines per micrometer.
